Test results reported in patent US20230150970A1, “AMINOPYRIMIDINE DERIVATIVES AND THEIR USE AS ARYL HYDROCARBON RECEPTOR MODULATORS” (DONG-A ST CO., LTD., priority 2020, published 2023).
Where two headings read alike, the source gives them in different places.

Experiments:
AhR [1] = target: T1, AhR (Homo sapiens, UniProt P35869); experiment: In Vitro Assay 4: endogenous AhR activity assay (CYP1A1 and CYP1B1 mRNA, qRT-PCR, HepG2 cells)
T1 sequence (P35869 11-848): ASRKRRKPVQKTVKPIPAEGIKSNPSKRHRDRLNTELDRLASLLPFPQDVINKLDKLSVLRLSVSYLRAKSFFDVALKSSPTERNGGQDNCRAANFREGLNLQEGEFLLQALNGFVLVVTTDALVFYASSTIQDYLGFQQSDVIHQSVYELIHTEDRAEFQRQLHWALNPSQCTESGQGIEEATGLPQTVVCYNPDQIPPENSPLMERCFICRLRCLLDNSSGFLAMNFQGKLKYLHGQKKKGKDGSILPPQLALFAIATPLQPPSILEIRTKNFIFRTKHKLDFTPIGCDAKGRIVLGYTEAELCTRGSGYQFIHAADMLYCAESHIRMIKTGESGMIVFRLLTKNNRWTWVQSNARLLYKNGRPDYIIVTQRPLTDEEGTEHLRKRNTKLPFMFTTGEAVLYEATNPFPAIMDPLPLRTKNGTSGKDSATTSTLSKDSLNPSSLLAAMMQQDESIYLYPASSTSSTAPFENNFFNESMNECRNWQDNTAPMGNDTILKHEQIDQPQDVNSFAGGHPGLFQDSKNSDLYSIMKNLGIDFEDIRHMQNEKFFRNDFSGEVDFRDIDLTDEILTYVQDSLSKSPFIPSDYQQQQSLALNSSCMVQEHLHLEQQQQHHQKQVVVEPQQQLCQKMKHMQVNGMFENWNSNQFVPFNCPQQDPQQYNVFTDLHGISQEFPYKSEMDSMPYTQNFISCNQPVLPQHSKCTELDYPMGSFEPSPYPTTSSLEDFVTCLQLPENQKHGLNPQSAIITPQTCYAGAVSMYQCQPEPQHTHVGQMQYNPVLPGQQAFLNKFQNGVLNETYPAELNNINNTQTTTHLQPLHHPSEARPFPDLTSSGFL

AhR [2] = target: T1, AhR; experiment: In Vitro Assay 1: XRE-luciferase reporter assay, antagonism in human cell line (HepG2); settings: Assay 1: AhR-Luc Human Antagonism (IC50, nM), 6 hours
AhR [3] = target: T1, AhR; experiment: In Vitro Assay 3: XRE-luciferase reporter assay, agonism in human cell line (HepG2); type: cell-based; set-up: endogenous in cells; host or cells: HepG2; settings: HepG2, tryptophan free medium, 6 hours, no agonist, read-out: Assay 3: AhR-Luc Human Agonism (EC50)
Experimental: In Vitro Assay 3: Agonism in Human Cell Line
HepG2 (human hepatoma cell line) cells co-transfected with XRE-Luc and Nano-Luc plasmids were plated in tryptophan free medium containing 1% of dialyzed fetal bovine serum and incubated overnight at 37° C. in a CO2 incubator. After 24 hours, cells were treated for 6 hours with test compounds or not. […] As a positive control, cells were incubated with TCDD.

[4] = HepG2, read-out: CYP1A1 (% Inhibition)
[5] = unmarked values: kynurenine 200 μM
[6] = HepG2, read-out: CYP1B1 (% Inhibition)
[7] = values marked *: kynurenine 50 μM

IC50 (AhR [2]; [5]) [nM]	EC50 (AhR [3]; class in brackets of the cell) [µM]	EC50 (AhR [3]; number of the cell) [µM]	IC50 (AhR [2]; [7]) [nM]	SMILES	inhibition at 0.123 µM (AhR [1]; [4]) [%]	inhibition at 0.123 µM (AhR [1]; [6]) [%]
< 10	> 10	> 30	–	OCC1CCN(c2cc(-c3ccc(N4CCOCC4)c(F)c3)nc(-c3cccnc3)n2)CC1 [Example 276, (1-(6-(3-fluoro-4-morpholinophenyl)-2-(pyridin-3-yl)pyrimidin-4-yl)piperidin-4-yl)methanol]	–	–
–	> 10	> 30	< 10	COCC(=O)NC1CCN(c2cc(-c3ccc(Cl)cc3)nc(-c3cccnc3)n2)CC1 [Example 225, N-(1-(6-(4-chlorophenyl)-2-(pyridin-3-yl)pyrimidin-4-yl)piperidin-4-yl)-2-methoxyacetamide]	–	–
< 10	> 10	> 30	–	O=C(CCCO)N1CCN(c2cc(-c3ccc(Cl)cc3)nc(-c3cccnc3)n2)CC1 [Example 361, 1-(4-(6-(4-chlorophenyl)-2-(pyridin-3-yl)pyrimidin-4-yl)piperazin-1-yl)-4-hydroxybutan-1-one]	–	–
< 10	> 10	> 30	–	OC[C@@H]1CCN(c2cc(-c3ccc(C(F)(F)F)cc3)nc(-c3cccnc3)n2)C[C@H]1O [Example 262, (3S,4S)-4-(hydroxymethyl)-1-(2-(pyridin-3-yl)-6-(4-(trifluoromethyl)phenyl)pyrimidin-4-yl)piperidin-3-ol]	–	–
10 to 100	> 10	> 30	–	OCC1CCN(c2cc(-c3ccc(OC4CCCCO4)cc3)nc(-c3cccnc3)n2)CC1 (stereo not shown) [Example 278, (1-(2-(pyridin-3-yl)-6-(4-((tetrahydro-2H-pyran-2-yl)oxy)phenyl)pyrimidin-4-yl)piperidin-4-yl)methanol]	–	–
< 10	> 10	> 30	–	OC[C@H]1CCN(c2cc(-c3ccc(C(F)(F)F)cc3)nc(-c3cccnc3)n2)C[C@@H]1O [Example 260, (3R,4R)-4-(hydroxymethyl)-1-(2-(pyridin-3-yl)-6-(4-(trifluoromethyl)phenyl)pyrimidin-4-yl)piperidin-3-ol]	–	–
–	> 10	> 30	< 10	CC(CO)N1CCN(c2cc(-c3ccc(Cl)cc3)nc(-c3cccnc3)n2)CC1 (stereo not shown) [Example 224, 2-(4-(6-(4-chlorophenyl)-2-(pyridin-3-yl)pyrimidin-4-yl)piperazin-1-yl)propan-1-ol]	–	–
–	–	0.758	> 1000	C[C@@H]1CN(c2cc(-c3ccc(Cl)cc3)nc(-c3cccnc3)n2)C[C@H](C)O1 [Example 70, cis-4-(6-(4-chlorophenyl)-2-(pyridin-3-yl)pyrimidin-4-yl)-2,6-dimethylmorpholine]	–	–
10 to 100	> 10	> 30	–	OCC1CCN(c2cc(-c3ccc(Cl)c(O)c3)nc(-c3cccnc3)n2)CC1 [Example 273, 2-chloro-5-(6-(4-(hydroxymethyl)piperidin-1-yl)-2-(pyridin-3-yl)pyrimidin-4-yl)phenol]	–	–
< 10	> 10	> 30	–	OCC1CCN(c2cc(-c3ccc(N4CCOCC4)nc3)nc(-c3cccnc3)n2)CC1 [Example 289, (1-(6-(6-morpholinopyridin-3-yl)-2-(pyridin-3-yl)pyrimidin-4-yl)piperidin-4-yl)methanol]	–	–
–	> 10	> 30	10 to 100	COCCN1CCC(CNc2cc(-c3ccc(Cl)cc3)nc(-c3cccnc3)n2)CC1 [Example 170, 6-(4-chlorophenyl)-N-((1-(2-methoxyethyl)piperidin-4-yl)methyl)-2-(pyridin-3-yl)pyrimidin-4-amine]	–	–
< 10	> 10	> 30	–	OCC1CCN(c2cc(-c3ccc(Cl)c(F)c3)nc(-c3cccnc3)n2)CC1 [Example 246, (1-(6-(4-chloro-3-fluorophenyl)-2-(pyridin-3-yl)pyrimidin-4-yl)piperidin-4-yl)methanol]	–	–
10 to 100	–	–	–	CN1CCN(c2ccc(-c3cc(N4CCC(CO)CC4)nc(-c4cccnc4)n3)cc2)CC1 [Example 275, (1-(6-(4-(4-methylpiperazin-1-yl)phenyl)-2-(pyridin-3-yl)pyrimidin-4-yl)piperidin-4-yl)methanol]	–	–
–	–	–	> 1000	NCC1CCCCN1c1cc(-c2ccc(Cl)cc2)nc(-c2cccnc2)n1 (stereo not shown) [Example 59, (1-(6-(4-chlorophenyl)-2-(pyridin-3-yl)pyrimidin-4-yl)piperidin-2-yl)methanamine]	–	–
–	–	–	> 1000	Clc1ccc(-c2cc(NCCC3CCNCC3)nc(-c3cccnc3)n2)cc1 [Example 58, 6-(4-chlorophenyl)-N-(2-(piperidin-4-yl)ethyl)-2-(pyridin-3-yl)pyrimidin-4-amine]	–	–

More lines, now with the values behind:

SMILES	IC50 (AhR [2]; [5]) [nM]	EC50 (AhR [3]; class in brackets of the cell) [µM]	EC50 (AhR [3]; number of the cell) [µM]	IC50 (AhR [2]; [7]) [nM]	inhibition at 0.123 µM (AhR [1]; [4]) [%]	inhibition at 0.123 µM (AhR [1]; [6]) [%]
O=S(=O)(CCO)N1CCN(c2cc(-c3ccc(C(F)(F)F)cc3)nc(-c3cccnc3)n2)CC1 [Example 349, 2-((4-(2-(pyridin-3-yl)-6-(4-(trifluoromethyl)phenyl)pyrimidin-4-yl)piperazin-1-yl)sulfonyl)ethan-1-ol]	< 10	–	–	–	97.6	–
COc1ccc(-c2cc(N3CCC(CO)CC3)nc(-c3cccnc3)n2)cc1 [Example 228, (1-(6-(4-methoxyphenyl)-2-(pyridin-3-yl)pyrimidin-4-yl)piperidin-4-yl)methanol]	10 to 100	–	–	–	107	101
O[C@H]1CON(c2cc(-c3ccc(C(F)(F)F)cc3)nc(-c3cccnc3)n2)C1 [Example 314, (R)-2-(2-(pyridin-3-yl)-6-(4-(trifluoromethyl)phenyl)pyrimidin-4-yl)isoxazolidin-4-ol]	< 10	> 10	> 30	–	–	–
CC1CCN(c2cc(-c3ccc(Cl)cc3)nc(-c3cccnc3)n2)CC1 [Example 27, 4-(4-chlorophenyl)-6-(4-methylpiperidin-1-yl)-2-(pyridin-3-yl)pyrimidine]	–	–	–	< 10	68.4	90.3
CC(=O)N1CCC(Nc2cc(-c3ccc(Cl)cc3)nc(-c3cccnc3)n2)CC1 [Example 146, 1-(4-((6-(4-chlorophenyl)-2-(pyridin-3-yl)pyrimidin-4-yl)amino)piperidin-1-yl)ethan-1-one]	–	–	–	10 to 100	41.8	77.2
Cc1cccc(N2CCN(c3cc(-c4ccc(Cl)cc4)nc(-c4cccnc4)n3)CC2)c1C [Example 118, 4-(4-chlorophenyl)-6-(4-(2,3-dimethylphenyl)piperazin-1-yl)-2-(pyridin-3-yl)pyrimidine]	–	–	1.58	10 to 100	–	–
OCCC1CCN(c2cc(-c3ccc(Cl)cc3)nc(-c3cccnc3)n2)CC1 [Example 43, 2-(1-(6-(4-chlorophenyl)-2-(pyridin-3-yl)pyrimidin-4-yl)piperidin-4-yl)ethan-1-ol]	–	–	–	< 10	97.1	100
O=S(=O)(C(F)F)N1CCN(c2cc(-c3ccc(Cl)cc3)nc(-c3cccnc3)n2)CC1 [Example 339, 4-(4-chlorophenyl)-6-(4-((difluoromethyl)sulfonyl)piperazin-1-yl)-2-(pyridin-3-yl)pyrimidine]	10 to 100	–	–	–	84.7	–
C[C@@H](O)[C@@H](C)Nc1cc(-c2ccc(Cl)cc2)nc(-c2cccnc2)n1 [Example 144, (2R,3R)-3-((6-(4-chlorophenyl)-2-(pyridin-3-yl)pyrimidin-4-yl)amino)butan-2-ol]	–	–	0.0559	10 to 100	–	–
O[C@H]1CCN(c2cc(-c3ccc(Cl)cc3)nc(-c3cnoc3)n2)C1 [Example 336, (S)-1-(6-(4-chlorophenyl)-2-(isoxazol-4-yl)pyrimidin-4-yl)pyrrolidin-3-ol]	100 to 1000	–	–	–	–	–
Clc1ccc(-c2cc(NCc3ccccn3)nc(-c3cccnc3)n2)cc1 [Example 31, 6-(4-chlorophenyl)-N-(pyridin-2-ylmethyl)-2-(pyridin-3-yl)pyrimidin-4-amine]	–	–	–	100 to 1000	–	–
CC(C)(CO)Nc1cc(-c2ccc(Cl)cc2)nc(-c2cccnc2)n1 [Example 4, 2-((6-(4-chlorophenyl)-2-(pyridin-3-yl)pyrimidin-4-yl)amino)-2-methylpropan-1-ol]	–	–	–	100 to 1000	–	–
